Experimental data as given in the CheMixHub viscosity set.

Experiment: xn = mol fraction of the nth substance listed

COC(=O)c1ccccc1 + CC#N
viscosity [mPa·s], 101.33 kPa
Details | x1 = 0.134 | x1 = 0.255 | x1 = 0.373 | x1 = 0.48 | x1 = 0.57 | x1 = 0.666 | x1 = 0.752 | x1 = 0.837 | x1 = 0.922
293.15 K | 0.444 | 0.476 | 0.515 | 0.624 | 0.676 | 0.805 | 0.958 | 1.128 | 1.508
303.15 K | 0.4 | 0.43 | 0.46 | 0.551 | 0.595 | 0.695 | 0.814 | 0.95 | 1.226
313.15 K | 0.365 | 0.387 | 0.41 | 0.5 | 0.521 | 0.608 | 0.701 | 0.811 | 1.016
323.15 K | 0.329 | 0.351 | 0.367 | 0.446 | 0.467 | 0.531 | 0.602 | 0.691 | 0.854

CC(C)OCCO + CC(=O)N(C)C
298.15 K, 101 kPa
Details | viscosity [mPa·s]
x1 = 0.0063 | 0.956
x1 = 0.014 | 0.97
x1 = 0.0243 | 0.983
x1 = 0.0518 | 1.016
x1 = 0.0792 | 1.049
x1 = 0.1131 | 1.092
x1 = 0.1712 | 1.167
x1 = 0.2095 | 1.225
x1 = 0.2923 | 1.336
x1 = 0.3534 | 1.422
x1 = 0.3673 | 1.443
x1 = 0.3996 | 1.494
x1 = 0.4419 | 1.555
x1 = 0.4958 | 1.63
x1 = 0.5445 | 1.704
x1 = 0.6028 | 1.782
x1 = 0.6671 | 1.871
x1 = 0.7594 | 1.973
x1 = 0.8097 | 2.044
x1 = 0.867 | 2.083
x1 = 0.9066 | 2.098
x1 = 0.9627 | 2.102
x2 = 0.006 | 2.106
x2 = 0.0146 | 2.105

CNC=O + CC(=O)N(C)C
viscosity [mPa·s], 101 kPa
Details | x2 = 0.0697 | x2 = 0.0811 | x2 = 0.1686 | x2 = 0.2571 | x2 = 0.3498 | x2 = 0.4488 | x2 = 0.545 | x2 = 0.6533 | x2 = 0.7606 | x2 = 0.8777
293.15 K | 1.824 | 1.81 | 1.709 | 1.612 | 1.516 | 1.422 | 1.337 | 1.252 | 1.176 | 1.101
303.15 K | 1.543 | 1.532 | 1.452 | 1.374 | 1.296 | 1.219 | 1.151 | 1.083 | 1.021 | 0.962
313.15 K | 1.325 | 1.316 | 1.252 | 1.188 | 1.125 | 1.063 | 1.007 | 0.95 | 0.9 | 0.85
323.15 K | 1.157 | 1.149 | 1.096 | 1.044 | 0.991 | 0.94 | 0.893 | 0.846 | 0.803 | 0.762

CNC=O + CC(=O)O
viscosity [mPa·s], 100 kPa
Details | x1 = 0.1097 | x1 = 0.183 | x1 = 0.2628 | x1 = 0.3502 | x1 = 0.4802 | x1 = 0.5897 | x1 = 0.6693 | x1 = 0.7549 | x1 = 0.8961
303.15 K | 1.044 | 1.086 | 1.132 | 1.183 | 1.259 | 1.324 | 1.372 | 1.426 | 1.517
308.15 K | 0.9723 | 1.011 | 1.054 | 1.1 | 1.169 | 1.228 | 1.272 | 1.32 | 1.402
313.15 K | 0.9175 | 0.9534 | 0.992 | 1.033 | 1.095 | 1.148 | 1.187 | 1.229 | 1.301
318.15 K | 0.8728 | 0.9059 | 0.9409 | 0.978 | 1.033 | 1.08 | 1.114 | 1.151 | 1.213

C[N+]1(CC2CO2)CCCC1=O.[Cl-] (centres undefined) + CC(=O)O
viscosity [mPa·s], 101 kPa
Details | 293.15 K | 298.15 K | 303.15 K | 308.15 K | 313.15 K
x1 = 0.0373 | 1.592 | 1.448 | 1.322 | 1.213 | 1.115
x1 = 0.0644 | 1.83 | 1.652 | 1.5 | 1.371 | 1.256
x1 = 0.1087 | 2.234 | 2 | 1.802 | 1.632 | 1.489
x1 = 0.2041 | 2.728 | 2.425 | 2.172 | 1.959 | 1.776
x1 = 0.3022 | 2.803 | 2.492 | 2.235 | 2.018 | 1.831
x1 = 0.4053 | 2.587 | 2.314 | 2.087 | 1.892 | 1.723
x1 = 0.5054 | 2.324 | 2.095 | 1.9 | 1.731 | 1.586
x1 = 0.605 | 2.107 | 1.908 | 1.738 | 1.591 | 1.465
x1 = 0.7073 | 1.919 | 1.746 | 1.597 | 1.469 | 1.356
x1 = 0.8065 | 1.817 | 1.657 | 1.521 | 1.402 | 1.297
x1 = 0.9047 | 1.752 | 1.602 | 1.473 | 1.36 | 1.261

OC[C@@H](O)[C@@H](O)[C@H](O)[C@@H](O)CO + CC(=O)[O-].CC[n+]1ccn(C)c1
Details | viscosity [mPa·s]
313.15 K, 100 kPa, x1 = 0.5 | 572.5

CNC=O + CC(=O)c1ccccc1
viscosity [mPa·s], 101 kPa
Details | x1 = 0.0867 | x1 = 0.176 | x1 = 0.268 | x1 = 0.3629 | x1 = 0.4607 | x1 = 0.5617 | x1 = 0.6659 | x1 = 0.7736 | x1 = 0.8849
303.15 K | 1.522 | 1.532 | 1.541 | 1.549 | 1.556 | 1.564 | 1.571 | 1.578 | 1.583
308.15 K | 1.423 | 1.43 | 1.436 | 1.442 | 1.447 | 1.452 | 1.456 | 1.46 | 1.462
313.15 K | 1.279 | 1.289 | 1.299 | 1.307 | 1.316 | 1.325 | 1.333 | 1.34 | 1.347
318.15 K | 1.133 | 1.148 | 1.162 | 1.176 | 1.19 | 1.204 | 1.218 | 1.231 | 1.243

CC(C)OCCO + CC(C)O
298.15 K, 101.33 kPa
Details | viscosity [mPa·s]
x1 = 0.0272 | 2.051
x1 = 0.0618 | 2.009
x1 = 0.0768 | 1.995
x1 = 0.092 | 1.986
x1 = 0.1373 | 1.959
x1 = 0.1766 | 1.941
x1 = 0.2006 | 1.929
x1 = 0.2467 | 1.914
x1 = 0.2976 | 1.9
x1 = 0.3502 | 1.899
x1 = 0.3949 | 1.902
x1 = 0.4259 | 1.903
x1 = 0.4507 | 1.908
x1 = 0.5015 | 1.918
x1 = 0.5529 | 1.93
x1 = 0.6181 | 1.948
x1 = 0.6764 | 1.971
x1 = 0.73 | 1.991
x1 = 0.7886 | 2.014
x1 = 0.8718 | 2.049
x1 = 0.9241 | 2.064
x1 = 0.9782 | 2.083

COC(=O)c1ccccc1 + CC(C)O
viscosity [mPa·s], 101 kPa
Details | x1 = 0.0634 | x1 = 0.1321 | x1 = 0.2069 | x1 = 0.2887 | x1 = 0.3784 | x1 = 0.4773 | x1 = 0.5868 | x1 = 0.7089 | x1 = 0.8456
303.15 K | 1.655 | 1.656 | 1.658 | 1.659 | 1.661 | 1.663 | 1.664 | 1.666 | 1.668
308.15 K | 1.495 | 1.495 | 1.496 | 1.496 | 1.497 | 1.498 | 1.498 | 1.499 | 1.5
313.15 K | 1.323 | 1.326 | 1.33 | 1.335 | 1.339 | 1.344 | 1.35 | 1.356 | 1.363
318.15 K | 1.189 | 1.196 | 1.204 | 1.212 | 1.221 | 1.231 | 1.242 | 1.254 | 1.267
323.15 K | 1.074 | 1.085 | 1.097 | 1.11 | 1.123 | 1.14 | 1.157 | 1.177 | 1.198

CCCCCCCCN(CCCCCCCC)CCCCCCCC + CC(CC(C)(C)C)CC(C)(C)C
298.15 K, 101.33 kPa
Details | viscosity [mPa·s]
x1 = 0.052 | 1.424
x1 = 0.11 | 1.675
x1 = 0.173 | 1.982
x1 = 0.527 | 4.26

CNC=O + CC(O)CO
viscosity [mPa·s], 101 kPa
Details | x1 = 0.0968 | x1 = 0.1216 | x1 = 0.2366 | x1 = 0.347 | x1 = 0.4526 | x1 = 0.5534 | x1 = 0.6498 | x1 = 0.7432 | x1 = 0.832 | x1 = 0.917
293.15 K | 39.02 | 36.25 | 22.68 | 14.7 | 9.934 | 6.941 | 5.057 | 3.792 | 2.933 | 2.349
303.15 K | 22.78 | 21.44 | 14.24 | 9.752 | 6.915 | 5.053 | 3.822 | 2.965 | 2.363 | 1.935
313.15 K | 14.24 | 13.56 | 9.479 | 6.811 | 5.034 | 3.819 | 2.986 | 2.381 | 1.949 | 1.631
323.15 K | 9.382 | 9.048 | 6.609 | 4.951 | 3.793 | 2.97 | 2.388 | 1.957 | 1.635 | 1.397
